# Values joined by “and” are separate entries in the source; they are usually repeats but may differ in a detail not shown here. Equal entries are not always repeated.
# Molecular target: Adenosine A2A receptor (Homo sapiens, UniProt P29274)
# Assay: cAMP assay in 293A cells stably expressing the adenosine A2A receptor (CGS21680 stimulation, HTRF)
# Assay type: cell-based
# Design: expressed in transfected cells; host or cells: 293A cells (Invitrogen, Cat# R705-07) infected with A2A-expressing lentivirus (custom packaged by Biosettia), puromycin selected
# Conditions: 293A cells stably expressing A2A receptor; 0.1% BSA; 1 uM CGS21680 stimulation; replicate values separated by /; read-out: cAMP (nM) 0.1% BSA, 1 uM CGS
# Adenosine A2A receptor, sequence (P29274 whole entry): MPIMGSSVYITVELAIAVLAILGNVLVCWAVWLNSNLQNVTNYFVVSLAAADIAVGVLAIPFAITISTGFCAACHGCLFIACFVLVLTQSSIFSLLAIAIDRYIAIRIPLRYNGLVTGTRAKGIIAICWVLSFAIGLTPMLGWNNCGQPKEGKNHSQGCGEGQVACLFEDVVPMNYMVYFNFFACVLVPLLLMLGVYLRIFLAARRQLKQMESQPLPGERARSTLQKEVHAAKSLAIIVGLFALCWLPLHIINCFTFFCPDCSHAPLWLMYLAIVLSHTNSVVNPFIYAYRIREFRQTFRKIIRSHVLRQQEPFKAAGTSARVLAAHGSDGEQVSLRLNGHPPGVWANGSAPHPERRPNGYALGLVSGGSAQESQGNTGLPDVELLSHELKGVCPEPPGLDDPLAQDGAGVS
row,Structure (SMILES),IC50
1,"Cc1cc(-c2c(OCc3cc(C(C)(C)O)cc(-c4nnn(C)n4)n3)nc(N)nc2-c2ccc(F)cc2)cc(C(F)F)n1 [Example 427, 2-(2-(((2-amino-5-(2-(difluoromethyl)-6-methylpyridin-4-yl)-6-(4-fluorophenyl)pyrimidin-4-yl)oxy)methyl)-6-(2-methyl-2H-tetrazol-5-yl)pyridin-4-yl)propan-2-ol]",5150 nM and 6010 nM
2,"Cc1cc(-c2c(OCc3cccc(C(O)(CCO)CCO)n3)nc(N)nc2-c2ccc(F)cc2)cc(C(F)F)n1 [Example 432, 3-(6-(((2-amino-5-(2-(difluoromethyl)-6-methylpyridin-4-yl)-6-(4-fluorophenyl)pyrimidin-4-yl)oxy)methyl)pyridin-2-yl)pentane-1,3,5-triol]",1260 nM
3,"Cc1cc(-c2c(OCc3nccc4nn(C)cc34)nc(N)nc2-c2ccc(F)cc2)cc(C(F)F)n1 [Example 430, 5-(2-(difluoromethyl)-6-methylpyridin-4-yl)-4-(4-fluorophenyl)-6-((2-methyl-2H-pyrazolo[4,3-c]pyridin-4-yl)methoxy)pyrimidin-2-amine]",2460 nM
4,"Cc1cc(-c2c(OCc3cccc(CNCC(=O)O)n3)nc(N)nc2-c2ccc(F)cc2)cc(C(F)F)n1 [Example 414, ((6-(((2-amino-5-(2-(difluoromethyl)-6-methylpyridin-4-yl)-6-(4-fluorophenyl)pyrimidin-4-yl)oxy)methyl)pyridin-2-yl)methyl)glycine]",2050 nM

# Same assay, conditions: 293A-A2AR cells, 0.1% BSA, 1 uM CGS; read-out: cAMP (nM) 0.1% BSA, 1 uM CGS
row,Structure (SMILES),IC50 [nM]
1,"CCc1nn(CC(C)(C)O)nc1COc1nc(N)nc(-c2ccc(F)cc2)c1-c1cc(C)nc(C(F)F)c1 [Example 251, 1-(4-(((2-amino-5-(2-(difluoromethyl)-6-methylpyridin-4-yl)-6-(4-fluorophenyl)pyrimidin-4-yl)oxy)methyl)-5-ethyl-2H-1,2,3-triazol-2-yl)-2-methylpropan-2-ol]",1280
2,"Cc1cc(-c2c(OC[C@H]3CC[C@H](C(=O)O)CC3)nc(N)nc2-c2ccc(F)cc2)cc(C(F)F)n1 [Example 279, (1,4-trans)-4-(((2-amino-5-(2-(difluoromethyl)-6-methylpyridin-4-yl)-6-(4-fluorophenyl)pyrimidin-4-yl)oxy)methyl)cyclohexane-1-carboxylic acid]",> 25000
3,"Cc1cc(-c2c(OCc3nc4cc(C(C)(C)C(=O)O)ccc4n3C)nc(N)nc2-c2ccc(F)cc2)cc(C(F)F)n1 [Example 369, 2-(2-(((2-amino-5-(2-(difluoromethyl)-6-methylpyridin-4-yl)-6-(4-fluorophenyl)pyrimidin-4-yl)oxy)methyl)-1-methyl-1H-benzo[d]imidazol-5-yl)-2-methylpropanoic acid]",> 25000
4,"Cc1cc(-c2c(OCc3ccnn3CC3CC3)nc(N)nc2-c2ccc(F)cc2)cc(C(F)F)n1 [Example 229, 4-((1-(cyclopropylmethyl)-1H-pyrazol-5-yl)methoxy)-5-(2-(difluoromethyl)-6-methylpyridin-4-yl)-6-(4-fluorophenyl)pyrimidin-2-amine]",107
5,"Cc1cc(-c2c(OCc3ccn(C(C)(C)C(=O)O)n3)nc(N)nc2-c2ccc(F)cc2)cc(C(F)F)n1 [Example 388, 2-(3-(((2-amino-5-(2-(difluoromethyl)-6-methylpyridin-4-yl)-6-(4-fluorophenyl)pyrimidin-4-yl)oxy)methyl)-1H-pyrazol-1-yl)-2-methylpropanoic acid]",7660
6,"Cc1cc(-c2c(OCc3cccc(C(C)(C)N)n3)nc(N)nc2-c2ccc(F)cc2)cc(C(F)F)n1 [Example 383, 4-((6-(2-aminopropan-2-yl)pyridin-2-yl)methoxy)-5-(2-(difluoromethyl)-6-methylpyridin-4-yl)-6-(4-fluorophenyl)pyrimidin-2-amine]",1010
7,"Cc1cc(-c2c(OCc3nc4ccccn4n3)nc(N)nc2-c2ccc(F)cc2)cc(C(F)F)n1 [Example 341, 4-([1,2,4]triazolo[1,5-a]pyridin-2-ylmethoxy)-5-(2-(difluoromethyl)-6-methylpyridin-4-yl)-6-(4-fluorophenyl)pyrimidin-2-amine]",1400
8,"Cc1cc(-c2c(OCc3nc(C(C)(C)O)cs3)nc(N)nc2-c2ccc(F)cc2)cc(C(F)F)n1 [Example 366, 2-(2-(((2-amino-5-(2-(difluoromethyl)-6-methylpyridin-4-yl)-6-(4-fluorophenyl)pyrimidin-4-yl)oxy)methyl)thiazol-4-yl)propan-2-ol]",1690
9,"Cc1cc(-c2c(OCc3cccc(C(O)CO)n3)nc(N)nc2-c2ccc(F)cc2)cc(C(F)F)n1 (stereo not drawn) [Example 303, 1-(6-(((2-amino-5-(2-(difluoromethyl)-6-methylpyridin-4-yl)-6-(4-fluorophenyl)pyrimidin-4-yl)oxy)methyl)pyridin-2-yl)ethane-1,2-diol]",965
10,"Cc1cc(-c2c(OCc3nc4ccccc4o3)nc(N)nc2-c2ccc(F)cc2)cc(C(F)F)n1 [Example 342, 4-(benzo[d]oxazol-2-ylmethoxy)-5-(2-(difluoromethyl)-6-methylpyridin-4-yl)-6-(4-fluorophenyl)pyrimidin-2-amine]",419
11,"Cc1cc(-c2c(OCCCCO)nc(N)nc2-c2ccc(F)cc2)cc(C(F)F)n1 [Example 245, 4-((2-amino-5-(2-(difluoromethyl)-6-methylpyridin-4-yl)-6-(4-fluorophenyl)pyrimidin-4-yl)oxy)butan-1-ol]",265
12,"Cc1cc(-c2c(OCc3cc4ccccc4s3)nc(N)nc2-c2ccc(F)cc2)cc(C(F)F)n1 [Example 343, 4-(benzo[b]thiophen-2-ylmethoxy)-5-(2-(difluoromethyl)-6-methylpyridin-4-yl)-6-(4-fluorophenyl)pyrimidin-2-amine]",1340
13,"CCc1c(COc2nc(N)nc(-c3ccc(F)cc3)c2-c2cc(C)nc(C(F)F)c2)nnn1CC(C)(C)C(=O)O [Example 302, 3-(4-(((2-amino-5-(2-(difluoromethyl)-6-methylpyridin-4-yl)-6-(4-fluorophenyl)pyrimidin-4-yl)oxy)methyl)-5-ethyl-1H-1,2,3-triazol-1-yl)-2,2-dimethylpropanoic acid]",> 10000
14,"CCc1nnn(CC(C)(C)C(=O)O)c1COc1nc(N)nc(-c2ccc(F)cc2)c1-c1cc(C)nc(C(F)F)c1 [Example 301, 3-(5-(((2-amino-5-(2-(difluoromethyl)-6-methylpyridin-4-yl)-6-(4-fluorophenyl)pyrimidin-4-yl)oxy)methyl)-4-ethyl-1H-1,2,3-triazol-1-yl)-2,2-dimethylpropanoic acid]",> 10000
15,"CCn1cnc(COc2nc(N)nc(-c3cccc(C#N)c3C)c2-c2cc(C)nc(C(F)F)c2)n1 [Example 239, 3-(2-amino-5-(2-(difluoromethyl)-6-methylpyridin-4-yl)-6-((1-ethyl-1H-1,2,4-triazol-3-yl)methoxy)pyrimidin-4-yl)-2-methylbenzonitrile]",7920
16,"Cc1cc(-c2c(OCc3cccc(C(C)(C)C(=O)O)c3)nc(N)nc2-c2ccc(F)cc2)cc(C(F)F)n1 [Example 363, 2-(3-(((2-amino-5-(2-(difluoromethyl)-6-methylpyridin-4-yl)-6-(4-fluorophenyl)pyrimidin-4-yl)oxy)methyl)phenyl)-2-methylpropanoic acid]",4800

# Same assay, conditions: 293A-A2AR cells, 0.1% BSA, 1 uM CGS; values separated by / are repeat determinations; read-out: cAMP (nM) 0.1% BSA, 1 uM CGS
row,Structure (SMILES),IC50 [nM]
1,"Cc1cc(-c2c(OCCN(C)c3ccncn3)nc(N)nc2-c2ccc(F)cc2)cc(C(F)F)n1 [Example 151, 5-(2-(difluoromethyl)-6-methylpyridin-4-yl)-4-(4-fluorophenyl)-6-(2-(methyl(pyrimidin-4-yl)amino)ethoxy)pyrimidin-2-amine]",> 25000

# Source: patent publication US20210355104A1, “ADENOSINE RECEPTOR BINDING COMPOUNDS” (Nikang Therapeuticsm Inc., priority 2018, published 2021)
